Active and inactive are the calls of the source. How the calls were made is not given here.
Tested on: M. tuberculosis H37Rv growth inhibition with meropenem
Assay: dose response, H37Rv, with and without meropenem (AID 434987);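 further: growth over 7 days at 37 °C before Alamar Blue read on day 9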
[1] = M. tuberculosis H37Rv growth inhibition, measured here: IC50 without meropenem
[2] = M. tuberculosis H37Rv growth inhibition, measured here: IC90 without meropenem
[3] = measured here: IC90 with meropenem

| Compound | IC50 | IC50 [1] | IC90 [2] | IC90 [3] |
| --- | --- | --- | --- | --- |
| O=C(CN(Cc1ccco1)C(=O)c1cccc(Cl)c1)Nc1c(Cl)cc(Cl)cc1Cl | 48.3 µM (inactive) | > 100 µM | > 100 µM | > 100 µM |
| COc1ccccc1NC(=O)COc1ccc(CO)cc1Cl | > 100 µM (inactive) | > 100 µM | > 100 µM | > 100 µM |
| CCOC(=O)CSc1nnc(CNC(=O)c2cccs2)n1CCc1ccccc1 | 20.1 µM (inactive) | 35.2 µM | 55.8 µM | 49.5 µM |
| CC(=O)Nc1ccc(S(=O)(=O)Nc2cccc3cccnc23)cc1 | 13.2 µM (inactive) | 21.5 µM | > 100 µM | 43.3 µM |
| CC(C(=O)Nc1sc2c(c1C(=O)NCc1ccco1)CCCC2)N1C(=O)c2ccccc2C1=O (configuration not stated) | 46.1 µM (inactive) | > 100 µM | > 100 µM | > 100 µM |
| CS/C(N)=N/N=C/c1cc(Br)cc(Br)c1O | 19.7 µM (inactive) | 34.7 µM | > 100 µM | > 100 µM |
| Cc1ccc(NC(=O)/C=C\C(=O)O)c([N+](=O)[O-])c1 | 56.7 µM (inactive) | 95.7 µM | > 100 µM | > 100 µM |
| COc1cc(/C=C/c2ccc3cccc([N+](=O)[O-])c3n2)ccc1OCC(=O)O | 6.21 µM | 24.9 µM | 62.5 µM | 12 µM |
| CCC1(CC)Cc2ccccc2C(N)=C1C#N | > 100 µM (inactive) | > 100 µM | > 100 µM | > 100 µM |
| CCn1c(SCc2nc(-c3cccs3)no2)nnc1-c1c[nH]c2ccccc12 | > 100 µM (inactive) | > 100 µM | > 100 µM | > 100 µM |
| O=C(/C=C/c1cc(Br)ccc1F)OCC(=O)N1CCCC1 | > 100 µM (inactive) | > 100 µM | > 100 µM | > 100 µM |
| COc1ccc(C[C@H](C)NC[C@@H](O)c2ccc(O)c(NC=O)c2)cc1 | > 100 µM (inactive) | > 100 µM | > 100 µM | > 100 µM |
| CC(/C=N/NC(=O)c1cc(-c2cccs2)[nH]n1)=C\c1ccccc1 | > 100 µM (inactive) | > 100 µM | > 100 µM | > 100 µM |
| C=CCNCCCOc1ccc(Cl)cc1C(C)(C)C | 48.1 µM (inactive) | 58.2 µM | 72.3 µM | 52.6 µM |
| Nc1cc(=O)nc(SCc2ccccc2)n1Cc1ccco1 | 87.3 µM (inactive) | > 100 µM | > 100 µM | > 100 µM |
| CCOC(=O)CNC(=O)CSc1ncnc2c1cnn2Cc1ccccc1 | > 100 µM (inactive) | > 100 µM | > 100 µM | > 100 µM |
| Cc1cccc(Cn2c(N3CCN(c4ccccc4)CC3)nc3c2c(=O)n(C)c(=O)n3C)c1 | > 100 µM (inactive) | > 100 µM | > 100 µM | > 100 µM |
| COc1ccc(C(=O)Nc2nc3ccccc3s2)c(OC)c1 | > 100 µM (inactive) | > 100 µM | > 100 µM | > 100 µM |
| Nc1ccc(C(=O)O)c(O)c1 | 0.25 µM (inactive) | < 0.2 µM | 7.65 µM | 1.88 µM |
| O=C(Oc1c(-c2ccccc2)c(=O)n2c3c(cccc13)CC2)c1cccc([N+](=O)[O-])c1 | 3.97 µM | 30.5 µM | 85.1 µM | 62.3 µM |
| Cc1cc(N2CCN(c3ccccc3)CC2)nc2ccccc12 | > 100 µM (inactive) | > 100 µM | > 100 µM | > 100 µM |
| O=C(Nc1cccc2ccccc12)N1CCCN(c2c(Cl)cncc2Cl)CC1 | > 100 µM (inactive) | > 100 µM | > 100 µM | > 100 µM |

| Compound | IC50 | IC50 [1] | IC90 [2] | IC90 [3] |
| --- | --- | --- | --- | --- |
| CCOC(=O)C1=C(N)OC(CCl)=C(C#N)C1c1ccsc1 (configuration not stated) | > 100 µM (inactive) | > 100 µM | > 100 µM | > 100 µM |
| CC(C)(C)c1nnc2sc(SCC(=O)c3cccs3)nn2c1=O | 19.3 µM | > 100 µM | > 100 µM | > 100 µM |
| CC(C)(C)c1cc(Cc2ccccc2)[nH]n1 | 28.2 µM (inactive) | 43.1 µM | > 100 µM | > 100 µM |
| CC(=O)c1ccc(OC(=O)N(c2ccccc2)c2ccccc2)cc1 | 4.13 µM | 29.6 µM | > 100 µM | 32.9 µM |
| C/C(=N\NC(=S)Nc1ccccc1C)c1ccc(O)cc1 | 0.552 µM | 21.6 µM | 24.7 µM | 7.97 µM |
| CCOC(=O)CNC(=O)/C(=C\c1ccc(F)cc1)NC(=O)c1ccccc1 | 19.1 µM | 55.5 µM | > 100 µM | 35.1 µM |
| O=C(CCSc1ccc(Cl)c(Cl)c1)NC12CC3CC(CC(C3)C1)C2 | 11.6 µM | 66.3 µM | > 100 µM | 12.3 µM |
| O=C(Nc1ccc2nc3n(c(=O)c2c1)CCCC3)c1cc([N+](=O)[O-])ccc1F | 83.8 µM (inactive) | 83.1 µM | 90 µM | 91 µM |
| CC(=O)Nc1cccc(-n2nnc(SCC(=O)Nc3ccc(F)c(Cl)c3)n2)c1 | > 100 µM (inactive) | > 100 µM | > 100 µM | > 100 µM |
| O=C(CSc1ncn[nH]1)Nc1cccc2ccccc12 | 29.6 µM (inactive) | 50.7 µM | > 100 µM | 65 µM |
| COCCNC(=O)c1ccc(NC(=O)C2(c3ccccc3)CCCC2)cc1 | 8.1 µM | 33.4 µM | > 100 µM | > 100 µM |
| COc1ccc(CCNCc2csc3nc4ccccc4n23)cc1OC | 50 µM (inactive) | 93.7 µM | > 100 µM | > 100 µM |
| C=CCN=c1scc(-c2ccc(F)cc2)n1/N=C/c1ccccn1 | 33 µM | 92.8 µM | > 100 µM | 71.7 µM |
| O=C(/C=C/c1cccnc1)c1ccc(O)cc1 | 19.8 µM (inactive) | 34.2 µM | 46.9 µM | 50.4 µM |
| O=c1oc(-c2ccccc2F)nc2scc(-c3ccccc3)c12 | 2.19 µM | > 100 µM | > 100 µM | 3.05 µM |
| O=C(NC1c2ccccc2-c2ccccc21)c1ccco1 | > 100 µM (inactive) | > 100 µM | > 100 µM | > 100 µM |
| CCOC(=O)c1cc(-c2ccc(C)cc2)n(CCC(=O)N2CCN(c3ccccn3)CC2)c1C | 69.5 µM (inactive) | 89.4 µM | > 100 µM | > 100 µM |
| CCCCCc1ccc(-c2ccc(/C=C/C(N)=O)cc2)nc1 | > 100 µM (inactive) | > 100 µM | > 100 µM | > 100 µM |
| Cc1ccc(C)c(SCc2noc(C(=O)NCC3CCCO3)c2C(=O)O)c1 (configuration not stated) | 44.3 µM (inactive) | 50.7 µM | > 100 µM | 48 µM |
| CCOc1ccc(NC(=S)Nc2cccnc2)cc1 | 89.5 µM (inactive) | > 100 µM | > 100 µM | > 100 µM |
| CC(C)CC(=O)N1CCN(c2ccc([N+](=O)[O-])c(NCc3ccccc3)c2)CC1 | 44.9 µM (inactive) | 46.7 µM | 51.5 µM | 48.6 µM |

Reference: PubChem BioAssay AID434987 (Southern Research Specialized Biocontainment Screening …, 2010)
